Assay results from patent publication US20230017045A1, “PYRIDINE AND PYRIMIDINE CARBOXYLATE HERBICIDES AND METHODS OF USE THEREOF” (Dow AgroSciences LLC, priority 2017, published 2023).

test system: test plant species; assay: Post-emergent herbicidal activity test (greenhouse, foliar spray, visual growth reduction); format: in vivo; conditions: post-emergence, 336 h, ECHCG: barnyardgrass (Echinochloa crus-galli), 140 g ai/ha, 14 days after application, read-out: Visual Growth Reduction (%) 14 Days After Application, ECHCG
Summary of the method: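 Seedlings were raised 7-21 d in a greenhouse under a 15 h photoperiod until the first or second true leaf. Each compound, dissolved in acetone:DMSO 97:3 and diluted into a surfactant-containing spray mixture, was then applied at 187 L/ha. Plants were subirrigated, and growth reduction was scored visually at 14 d.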

Compound | pest or weed control at 140 g/ha
COC(=O)c1nc(-c2cccc(C(F)(F)F)c2F)ccc1Cl [F289, Methyl 3-chloro-6-(2-fluoro-3-(trifluoromethyl)phenyl)picolinate] | 0 to 29%
COC(=O)c1nc(-c2cc(F)c(C(F)(F)F)cc2Cl)c(F)cc1Cl [F241, Methyl 3-chloro-6-(2-chloro-5-fluoro-4-(trifluoromethyl)phenyl)-5-fluoropicolinate] | 60 to 74%

same assay, conditions: post-emergence, 336 h, IPOHE: ivy-leaf morning glory (Ipomoea hederacea), 140 g ai/ha, 14 days after application, read-out: Visual Growth Reduction (%) 14 Days After Application, IPOHE

Compound | pest or weed control at 140 g/ha
COC(=O)c1nc(-c2cccc(C(F)(F)F)c2F)ccc1Cl [F289, Methyl 3-chloro-6-(2-fluoro-3-(trifluoromethyl)phenyl)picolinate] | 45 to 59%
COC(=O)c1nc(-c2cc(F)c(C(F)(F)F)cc2Cl)c(F)cc1Cl [F241, Methyl 3-chloro-6-(2-chloro-5-fluoro-4-(trifluoromethyl)phenyl)-5-fluoropicolinate] | 95 to 100%

same assay, conditions: post-emergence, 336 h, KCHSC: kochia (Bassia scoparia), 140 g ai/ha, 14 days after application, read-out: Visual Growth Reduction (%) 14 Days After Application, KCHSC

Compound | pest or weed control at 140 g/ha
COC(=O)c1nc(-c2cccc(C(F)(F)F)c2F)ccc1Cl [F289, Methyl 3-chloro-6-(2-fluoro-3-(trifluoromethyl)phenyl)picolinate] | 0 to 29%
COC(=O)c1nc(-c2cc(F)c(C(F)(F)F)cc2Cl)c(F)cc1Cl [F241, Methyl 3-chloro-6-(2-chloro-5-fluoro-4-(trifluoromethyl)phenyl)-5-fluoropicolinate] | 95 to 100%

same assay, conditions: post-emergence, 336 h, ORYSA: rice (Oryza sativa), 140 g ai/ha, 14 days after application, read-out: Visual Growth Reduction (%) 14 Days After Application, ORYSA

Compound | pest or weed control at 140 g/ha
COC(=O)c1nc(-c2cccc(C(F)(F)F)c2F)ccc1Cl [F289, Methyl 3-chloro-6-(2-fluoro-3-(trifluoromethyl)phenyl)picolinate] | 0 to 29%
COC(=O)c1nc(-c2cc(F)c(C(F)(F)F)cc2Cl)c(F)cc1Cl [F241, Methyl 3-chloro-6-(2-chloro-5-fluoro-4-(trifluoromethyl)phenyl)-5-fluoropicolinate] | 0 to 29%

same assay, conditions: post-emergence, 336 h, SETFA: giant foxtail (Setaria faberi), 140 g ai/ha, 14 days after application, read-out: Visual Growth Reduction (%) 14 Days After Application, SETFA

Compound | pest or weed control at 140 g/ha
COC(=O)c1nc(-c2cccc(C(F)(F)F)c2F)ccc1Cl [F289, Methyl 3-chloro-6-(2-fluoro-3-(trifluoromethyl)phenyl)picolinate] | 0 to 29%
COC(=O)c1nc(-c2cc(F)c(C(F)(F)F)cc2Cl)c(F)cc1Cl [F241, Methyl 3-chloro-6-(2-chloro-5-fluoro-4-(trifluoromethyl)phenyl)-5-fluoropicolinate] | 95 to 100%

same assay, conditions: post-emergence, 336 h, SORVU: grain sorghum (Sorghum vulgare), 140 g ai/ha, 14 days after application, read-out: Visual Growth Reduction (%) 14 Days After Application, SORVU

Compound | pest or weed control at 140 g/ha
COC(=O)c1nc(-c2cccc(C(F)(F)F)c2F)ccc1Cl [F289, Methyl 3-chloro-6-(2-fluoro-3-(trifluoromethyl)phenyl)picolinate] | 0 to 29%
COC(=O)c1nc(-c2cc(F)c(C(F)(F)F)cc2Cl)c(F)cc1Cl [F241, Methyl 3-chloro-6-(2-chloro-5-fluoro-4-(trifluoromethyl)phenyl)-5-fluoropicolinate] | 95 to 100%

same assay, conditions: post-emergence, 336 h, STEME: common chickweed (Stellaria media), 140 g ai/ha, 14 days after application, read-out: Visual Growth Reduction (%) 14 Days After Application, STEME

Compound | pest or weed control at 140 g/ha
COC(=O)c1nc(-c2cccc(C(F)(F)F)c2F)ccc1Cl [F289, Methyl 3-chloro-6-(2-fluoro-3-(trifluoromethyl)phenyl)picolinate] | 0 to 29%
COC(=O)c1nc(-c2cc(F)c(C(F)(F)F)cc2Cl)c(F)cc1Cl [F241, Methyl 3-chloro-6-(2-chloro-5-fluoro-4-(trifluoromethyl)phenyl)-5-fluoropicolinate] | 0 to 29%

same assay, conditions: post-emergence, 336 h, TRZAS: wheat, spring (Triticum aestivum), 140 g ai/ha, 14 days after application, read-out: Visual Growth Reduction (%) 14 Days After Application, TRZAS

Compound | pest or weed control at 140 g/ha
COC(=O)c1nc(-c2cccc(C(F)(F)F)c2F)ccc1Cl [F289, Methyl 3-chloro-6-(2-fluoro-3-(trifluoromethyl)phenyl)picolinate] | 0 to 29%
COC(=O)c1nc(-c2cc(F)c(C(F)(F)F)cc2Cl)c(F)cc1Cl [F241, Methyl 3-chloro-6-(2-chloro-5-fluoro-4-(trifluoromethyl)phenyl)-5-fluoropicolinate] | 75 to 84%

same assay, conditions: post-emergence, 336 h, blackgrass (Alopecurus myosuroides), 14 Days After Application, 140 g ai/ha, read-out: Visual Growth Reduction (%) ALOMY

Compound | pest or weed control at 140 g/ha
COC(=O)c1nc(-c2cccc(C(F)(F)F)c2F)ccc1Cl [F289, Methyl 3-chloro-6-(2-fluoro-3-(trifluoromethyl)phenyl)picolinate] | 0 to 29%
COC(=O)c1nc(-c2cc(F)c(C(F)(F)F)cc2Cl)c(F)cc1Cl [F241, Methyl 3-chloro-6-(2-chloro-5-fluoro-4-(trifluoromethyl)phenyl)-5-fluoropicolinate] | 60 to 74%

same assay, conditions: post-emergence, 336 h, canada thistle (Cirsium arvense), 14 Days After Application, 140 g ai/ha, read-out: Visual Growth Reduction (%) CIRAR

Compound | pest or weed control at 140 g/ha
COC(=O)c1nc(-c2cccc(C(F)(F)F)c2F)ccc1Cl [F289, Methyl 3-chloro-6-(2-fluoro-3-(trifluoromethyl)phenyl)picolinate] | 30 to 44%
COC(=O)c1nc(-c2cc(F)c(C(F)(F)F)cc2Cl)c(F)cc1Cl [F241, Methyl 3-chloro-6-(2-chloro-5-fluoro-4-(trifluoromethyl)phenyl)-5-fluoropicolinate] | 95 to 100%

same assay, conditions: post-emergence, 336 h, crabgrass (Digitaria sanguinalis), 14 Days After Application, 140 g ai/ha, read-out: Visual Growth Reduction (%) DIGSA

Compound | pest or weed control at 140 g/ha
COC(=O)c1nc(-c2cccc(C(F)(F)F)c2F)ccc1Cl [F289, Methyl 3-chloro-6-(2-fluoro-3-(trifluoromethyl)phenyl)picolinate] | 0 to 29%
COC(=O)c1nc(-c2cc(F)c(C(F)(F)F)cc2Cl)c(F)cc1Cl [F241, Methyl 3-chloro-6-(2-chloro-5-fluoro-4-(trifluoromethyl)phenyl)-5-fluoropicolinate] | 95 to 100%

same assay, conditions: post-emergence, 336 h, lambsquarters (Chenopodium album), 14 Days After Application, 140 g ai/ha, read-out: Visual Growth Reduction (%) CHEAL

Compound | pest or weed control at 140 g/ha
COC(=O)c1nc(-c2cccc(C(F)(F)F)c2F)ccc1Cl [F289, Methyl 3-chloro-6-(2-fluoro-3-(trifluoromethyl)phenyl)picolinate] | 30 to 44%
COC(=O)c1nc(-c2cc(F)c(C(F)(F)F)cc2Cl)c(F)cc1Cl [F241, Methyl 3-chloro-6-(2-chloro-5-fluoro-4-(trifluoromethyl)phenyl)-5-fluoropicolinate] | 95 to 100%

same assay, conditions: post-emergence, 336 h, redroot pigweed (Amaranthus retroflexus), 14 Days After Application, 140 g ai/ha, read-out: Visual Growth Reduction (%) AMARE

Compound | pest or weed control at 140 g/ha
COC(=O)c1nc(-c2cccc(C(F)(F)F)c2F)ccc1Cl [F289, Methyl 3-chloro-6-(2-fluoro-3-(trifluoromethyl)phenyl)picolinate] | 0 to 29%
COC(=O)c1nc(-c2cc(F)c(C(F)(F)F)cc2Cl)c(F)cc1Cl [F241, Methyl 3-chloro-6-(2-chloro-5-fluoro-4-(trifluoromethyl)phenyl)-5-fluoropicolinate] | 95 to 100%

same assay, conditions: post-emergence, 336 h, wild oat (Avena fatua), 14 Days After Application, 140 g ai/ha, read-out: Visual Growth Reduction (%) AVEFA

Compound | pest or weed control at 140 g/ha
COC(=O)c1nc(-c2cccc(C(F)(F)F)c2F)ccc1Cl [F289, Methyl 3-chloro-6-(2-fluoro-3-(trifluoromethyl)phenyl)picolinate] | 0 to 29%
COC(=O)c1nc(-c2cc(F)c(C(F)(F)F)cc2Cl)c(F)cc1Cl [F241, Methyl 3-chloro-6-(2-chloro-5-fluoro-4-(trifluoromethyl)phenyl)-5-fluoropicolinate] | 85 to 94%

same assay, conditions: post-emergence, 336 h, yellow nutsedge (Cyperus esculentus), 14 Days After Application, 140 g ai/ha, read-out: Visual Growth Reduction (%) CYPES

Compound | pest or weed control at 140 g/ha
COC(=O)c1nc(-c2cccc(C(F)(F)F)c2F)ccc1Cl [F289, Methyl 3-chloro-6-(2-fluoro-3-(trifluoromethyl)phenyl)picolinate] | 0 to 29%
COC(=O)c1nc(-c2cc(F)c(C(F)(F)F)cc2Cl)c(F)cc1Cl [F241, Methyl 3-chloro-6-(2-chloro-5-fluoro-4-(trifluoromethyl)phenyl)-5-fluoropicolinate] | 60 to 74%
